Measured values from patent publication US9328138B2 (priority 2011, dated 2016).

Key:
[1] = target: T1, HCV genotype 1b (BK) NS3 modified enzyme with a R155K mutation (Hepatitis C virus genotype 1b, UniProt P26663, R1181K); test: HCV NS3 protease time-resolved fluorescence (TRF) assay, genotype 1b R155K; format: biochemical; conditions: Ki 1b R155K, genotype 1b (BK) NS3 R155K; single value
T1 construct: HCV genotype 1b (BK) NS3 modified enzyme
Outline: (§1)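 NS3/NS4A protease was pre-incubated 10 min with inhibitor in 50 mM HEPES pH 7.5, 150 mM NaCl, 15% glycerol, 0.15% Triton X-100, 10 mM DTT, 0.1% PEG 8000. TRF peptide substrate (25 nM final) was hydrolysed for 6 h at room temperature. IC50 came from four-parameter fits.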

[2] = target: HCV NS3 protease genotype 3a (3A-1) (Hepatitis C virus genotype 3a, UniProt Q81258); test: HCV NS3 protease time-resolved fluorescence (TRF) assay, genotype 3a; format: biochemical; conditions: Ki 3a
Outline: as §1

Structure (SMILES)	Ki [1]	Ki [2]
C=C[C@@H]1C[C@]1(NC(=O)[C@@H]1C[C@@H]2CN1C(=O)[C@H](C1CCCC1)NC(=O)O[C@@H]1CCC[C@H]1CC/C=C/Cc1c(nc3ccccc3c1OCCCN1CCCC1=O)O2)C(=O)NS(=O)(=O)C1CC1 [Example 78, (3aR,7S,10S,12R,21E,24aS)-7-cyclo pentyl-N-{(1R,2S)-1-[(cyclopropylsulfonyl)carbamoyl]-2-ethenylcyclopropyl}-5,8-dioxo-19-[3-(2-oxopyrrolidin-1-yl)propoxy]-1,2,3,3a,5,6,7,8,11,12,20,23,24,24a-tetradecahydro-10H-9,12-methano-cyclopenta[18,19][1,10,3,6]dioxa diazacyclonona decino[11,12-b] quinoline-10-carboxamide]	0.08 nM	0.54 nM
C=C[C@@H]1C[C@]1(NC(=O)[C@@H]1C[C@@H]2CN1C(=O)[C@H](C1CCCC1)NC(=O)O[C@@H]1CCC[C@H]1CC/C=C/Cc1c(nc3ccccc3c1OCCN1CCCC1=O)O2)C(=O)NS(=O)(=O)C1CC1 [Example 79, (3aR,7S,10S,12R,21E,24aS)-7-cyclo pentyl-N-{(1R,2S)-1-[(cyclopropylsulfonyl)carbamoyl]-2-ethenylcyclopropyl}-5,8-dioxo-19-[2-(2-oxopyrrolidin-1-yl)ethoxy]-1,2,3,3a,5,6,7,8,11,12,20,23,24,24a-tetradeca hydro-10H-9,12-methanocyclopenta[18,19][1,10,3,6] dioxadiaza cyclononadecino[11,12-b]quinoline-10-carboxamide]	0.06 nM	1.8 nM
C=CC1C[C@]1(NC(=O)[C@@H]1C[C@@H]2CN1C(=O)[C@H](C1CCCC1)NC(=O)O[C@@H]1CCC[C@H]1CC/C=C/Cc1c(nc3ccccc3c1OCCN1CCCC1)O2)C(=O)NS(=O)(=O)C1CC1 (stereo partly drawn) [Example 80, (3aR,7S,10S,12R,21E,24aS)-7-cyclo pentyl-N-{(1R,2S)-1-[(cyclopropylsulfonyl)carbamoyl]-2-ethenylcyclopropyl}-5,8-dioxo-19-[2-(pyrrolidin-1-yl)ethoxy]-1,2,3,3a,5,6,7,7,8,11,12,20,23,24,24a-tetradecahydro-10H-9,12-methanocyclopenta[18,19] [1,10,3,6]dioxa diazacyclononadecino[11,12-b] quinoline-10-carboxamide]	0.2 nM	2.4 nM
C=CC1C[C@]1(NC(=O)[C@@H]1C[C@@H]2CN1C(=O)[C@H](C1CCCC1)NC(=O)O[C@@H]1CCC[C@H]1CC/C=C/Cc1c(nc3ccccc3c1OCCN1CCCCC1)O2)C(=O)NS(=O)(=O)C1CC1 (some centres unmarked) [Example 81]	0.29 nM	4.6 nM
C=C[C@@H]1C[C@]1(NC(=O)[C@@H]1C[C@@H]2CN1C(=O)[C@H](C1CCCC1)NC(=O)O[C@@H]1CCC[C@H]1CC/C=C/Cc1c(nc3ccccc3c1OCCN(C)C)O2)C(=O)NS(=O)(=O)C1CC1 [Example 82, (3aR,7S,10S,12R,21E,24aS)-7-cyclo pentyl-N-{(1R,2S)-1-[(cyclopropylsulfonyl)carbamoyl]-2-ethenylcyclopropyl}-19-[2-(dimethylamino)ethoxy]-5,8-dioxo-1,2,3,3a,5,6,7,8,11,12,20,23, 24,24a-tetradecahydro-10H-9,12-methanocyclopenta[18,19] [1,10,3,6]dioxadiazacyclononadecino [11,12-b]quinoline-10-carboxamide]	0.18 nM	2.5 nM
C=C[C@@H]1C[C@]1(NC(=O)[C@@H]1C[C@@H]2CN1C(=O)[C@H](C1CCCC1)NC(=O)O[C@@H]1CCC[C@H]1CC/C=C/Cc1c(nc3ccccc3c1OCCCN1CCCC(F)(F)C1)O2)C(=O)NS(=O)(=O)C1(C)CC1 [Example 83, (3aR,7S,10S,12R,21E,24aS)-7-cyclo pentyl-19-[3-(3,3-difluoropiperidin-1-yl)propoxy]-N-[(1R,s)-2-ethenyl-1-{[(1-methylcyclopropyl)sulfonyl]carbamoyl}cyclopropyl]-5,8-dioxo-1,2,3,3a,5,6,7,8,11,12,20,23,24,24a-tetradecahydro-10H-9,12-methanocyclopenta[18,19] [1,10,3,6]dioxadiazacyclononadecino [11,12-b]quinoline-10-carboxamide]	1.1 nM	23 nM
C=C[C@@H]1C[C@]1(NC(=O)[C@@H]1C[C@@H]2CN1C(=O)[C@H](C1CCCC1)NC(=O)O[C@@H]1CCC[C@H]1CC/C=C/Cc1c(nc3ccccc3c1OCCCNC(=O)OC(C)(C)C)O2)C(=O)NS(=O)(=O)C1CC1 [Example 84, tert-butyl (3-{[(3aR,7S,10S,12R,21E,24aS)-7-cyclopentyl-10-({(1R,2S)-1-[(cyclopropylsulfonyl)carbamoyl]-2-ethenylcyclopropyl}carbamoyl)-5,8-dioxo-1,2,3,3a,5,6,7,8,11,12, 20,23,24,24a-tetradecahydro-10H-9,12-methanocyclopenta[18,19][1,10,3,6]dioxadiazacyclononadecino [11,12-b]quinolin-19-yl]oxy}propyl)carbamate]	0.24 nM	7.2 nM
C=CC1C[C@]1(NC(=O)[C@@H]1C[C@@H]2CN1C(=O)[C@H](C1CCCC1)NC(=O)O[C@@H]1CCC[C@H]1CC/C=C/Cc1c(nc3ccccc3c1OCCCN1CCC1)O2)C(=O)NS(=O)(=O)C1(C)CC1 (stereo partly drawn) [Example 85, (3aR,7S,10S,12R,21E,24aS)-19-[3-(azetidin-1-yl)propoxy]-7-cyclopentyl-N-[(1R,2S)-2-ethenyl-1-{[(1-methylcyclopropyl)sulfonyl]carbamoyl}cyclopropyl]-5,8-dioxo-1,2,3,3a,5,6,7,8,11,12,20,23,24,24a-tetra deca hydro-10H-9,12-methanocyclopenta [18,19][1,10,3,6]dioxa-diazacyclononadecino[11,12-b] quinoline-10-carboxamide]	0.11 nM	0.56 nM
C=C[C@@H]1C[C@]1(NC(=O)[C@@H]1C[C@@H]2CN1C(=O)[C@H](C1CCCC1)NC(=O)O[C@@H]1CCC[C@H]1CC/C=C/Cc1c(nc3ccccc3c1OCCN1CC3(CCC3)C1)O2)C(=O)NS(=O)(=O)C1(C)CC1 [Example 86, (3aR,7S,10S,12R,21E,24aS)-19-[2-(2-azaspiro[3.3]hept-2-yl)ethoxy]-7-cyclopentyl-N-[(1R,2S)-2-ethenyl-1-{[(1-methylcyclopropyl)sulfonyl]carbamoyl}cyclopropyl]-5,8-dioxo-1,2,3,3a,5,6,7,8,11,12,20,23,24,24a-tetradecahydro-10H-9,12-methanocyclopenta[18,19] [1,10,3,6]dioxadiazacyclononadecino [11,12-b]quinoline-10-carboxamide]	0.23 nM	4.4 nM
C=C[C@@H]1C[C@]1(NC(=O)[C@@H]1C[C@@H]2CN1C(=O)[C@H](C1CCCC1)NC(=O)O[C@@H]1CCC[C@H]1CC/C=C/Cc1c(nc3ccccc3c1OCCCN1CCOCC1)O2)C(=O)NS(=O)(=O)C1CC1 [Example 87, (3aR,7S,10S,12R,21E,24aS)-7-cyclo pentyl-N-{(1R,2S)-1-[(cyclopropylsulfonyl)carbamoyl]-2-ethenylcyclopropyl}-19-[3-(morpholin-4-yl)propoxy]-5,8-dioxo-1,2,3,3a,5,6,7,8,11,12,20,23,24, 24a-tetradeca hydro-10H-9,12-methano cyclopenta[18,19][1,10,3,6] dioxadiazacyclononadecino [11,12-b]quinoline-10-carboxamide]	0.24 nM	3.2 nM
C=CC1C[C@]1(NC(=O)[C@@H]1C[C@@H]2CN1C(=O)[C@H](C1CCCC1)NC(=O)O[C@@H]1CCC[C@H]1CC/C=C/Cc1c(nc3ccccc3c1OCCCN1CCN(C)CC1)O2)C(=O)NS(=O)(=O)C1CC1 (stereo partly drawn) [Example 88, (3aR,7S,10S,12R,21E,24aS)-7-cyclo pentyl-N-{(1R,2S)-1-[(cyclo-propylsulfonyl)carbamoyl]-2-ethenylcyclopropyl}-19-[3-(4-methylpiperazin-1-yl)propoxy]-5,8-dioxo-1,2,3,3a,5,6,7,8,11,12,20,23,24,24a-tetradecahydro-10H-9,12-methano-cyclopenta[18,19][1,10,3,6]dioxa diazacyclononadecino[11,2-b]quinoline-10-carboxamide]	0.34 nM	4.4 nM
C=C[C@@H]1C[C@]1(NC(=O)[C@@H]1C[C@@H]2CN1C(=O)[C@H](C(C)(C)C)NC(=O)O[C@@H]1CCC[C@H]1CC/C=C/Cc1c(nc3ccccc3c1OCCCN1CCCC1=O)O2)C(=O)NS(=O)(=O)C1(C)CC1 [Example 89, (3aR,7S,10S,12R,21E,24aS)-7-tert-butyl-N-[(1R,2S)-2-ethenyl-1-{[(1-methycyclopropyl)sulfonyl]carbamoyl}cyclopropyl]-5,8-dioxo-19-[3-(2-oxopyrrolidin-1-yl)propoxy]-1,2,3,3a,5,6,7,8,11,12,20,23,24,24a-tetradecahydro-10H-9,12-methano-cyclopenta[18,19][1,10,3,6]dioxa diazacyclononadecino[11,12-b] quinoline-10-carboxamide]	0.07 nM	0.32 nM
C=C[C@@H]1C[C@]1(NC(=O)[C@@H]1C[C@@H]2CN1C(=O)[C@H](C(C)(C)C)NC(=O)O[C@@H]1CCC[C@H]1CC/C=C/Cc1c(nc3ccccc3c1OCCCOC)O2)C(=O)NS(=O)(=O)C1(C)CC1 [Example 90, (3aR,7S,10S,12R,21E,24aS)-7-tert-butyl-N-[(1R,2S)-2-ethenyl-1-{[(1-methylcyclopropyl)sulfonyl]carbamoyl}cyclopropyl]-19-(3-methoxypropoxy)-5,8-dioxo-1,2,3,3a,5,6,7,8,11,12,20,23,24,24a-tetradecahydro-10H-9,12-methanocyclopenta[18,19][1,10,3,6] dioxadiazacyclononadecino [11,12-b]quinoline-10-carboxamide]	0.15 nM	1.6 nM
